According to patent US20200255478A1, “NOVEL COMPOUNDS ACTIVATING THE NRF2 PATHWAY” (Almirall, S.A., priority 2017, published 2020):
Starred links: 1 amine or outer side, 2 acyl side, 3 side chain; linkers in the order of their positions; H or OH if unused. Positions of bridges follow the written chain, without caps; N, C: chain ends. Residues, ends and D or L forms follow the SMILES beside them. *: point of attachment. oXylylene = c1ccc(C[*:2])c(C[*:1])c1; Stearoyl = CCCCCCCCCCCCCCCCCC(=O)*; βAla = NCCC(=O)O

biological target: Keap1-Maltose Binding Protein (MBP tag) (Homo sapiens, UniProt Q14145); assay: Nrf2-Keap1 HTRF (TR-FRET) binding assay: displacement of biotinylated ETGE peptide from Keap1-MBP; conditions: not given
Sequence (Q14145 whole entry): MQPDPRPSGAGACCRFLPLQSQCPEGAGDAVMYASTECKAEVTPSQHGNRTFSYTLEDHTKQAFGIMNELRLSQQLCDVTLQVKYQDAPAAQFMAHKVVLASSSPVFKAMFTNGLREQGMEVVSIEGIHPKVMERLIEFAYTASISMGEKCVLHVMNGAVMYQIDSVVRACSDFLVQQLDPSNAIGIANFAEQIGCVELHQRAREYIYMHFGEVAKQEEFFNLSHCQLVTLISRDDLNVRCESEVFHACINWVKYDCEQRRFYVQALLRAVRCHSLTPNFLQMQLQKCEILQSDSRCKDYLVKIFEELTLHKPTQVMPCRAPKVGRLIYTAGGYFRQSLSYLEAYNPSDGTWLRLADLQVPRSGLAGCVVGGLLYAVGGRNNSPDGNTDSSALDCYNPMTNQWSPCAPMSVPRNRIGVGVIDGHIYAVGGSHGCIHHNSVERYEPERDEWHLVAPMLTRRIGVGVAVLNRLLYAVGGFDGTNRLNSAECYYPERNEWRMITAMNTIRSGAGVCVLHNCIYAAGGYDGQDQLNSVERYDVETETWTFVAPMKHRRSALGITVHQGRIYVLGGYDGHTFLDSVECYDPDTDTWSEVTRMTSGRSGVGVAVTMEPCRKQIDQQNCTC

CCCCCCCCCCCCCCCC(=O)N[C@H]1C[C@H]2C(=O)N[C@@H](CCC(N)=O)C(=O)N[C@H]3CSCc4ccccc4CSC[C@H](NC(=O)[C@H](CCC(=O)O)NC(=O)CNC(=O)[C@H]([C@@H](C)O)NC(=O)[C@H](CCC(=O)O)NC(=O)[C@@H]4CCCN4C(=O)[C@H](CC(=O)O)NC3=O)C(=O)N[C@@H](CC(C)C)C(=O)N3CCC[C@@H]3C(=O)N2C1 [Example 83, {[&^1Pro((4S)-NH-Palmitoyl)-Gln-Cys(&^2)-Asp-Pro-Glu-Thr-Gly-Glu-Cys(&^3)-Leu-D-Pro&^1][&^2(1,2-phenylenediyl)dimethylene&^3]}] and CCCCCCCCCCCCCCCCCCC(=O)N[C@H]1C[C@H]2C(=O)N[C@@H](CCC(N)=O)C(=O)N[C@H]3CSCc4ccccc4CSC[C@H](NC(=O)[C@H](CCC(=O)O)NC(=O)CNC(=O)[C@H]([C@@H](C)O)NC(=O)[C@H](CCC(=O)O)NC(=O)[C@@H]4CCCN4C(=O)[C@H](CC(=O)O)NC3=O)C(=O)N[C@@H](CC(C)C)C(=O)N3CCC[C@@H]3C(=O)N2C1 [Example 98, {[&^1Pro((4S)-NH-Nonadecanoyl)-Gln-Cys(&^2)-Asp-Pro-Glu-Thr-Gly-Glu-Cys(&^3)-Leu-D-Pro&^1][&^2(1,2-phenylenediyl)dimethylene&^3]}] cannot be ordered by IC50: under 1 nM for the first, under 1 nM for the second.

CCCCCCCCCCCCCCCCCC(=O)N[C@H]1C[C@H]2C(=O)N[C@@H](CCC(N)=O)C(=O)N[C@H]3CSCc4ccccc4CSC[C@H](NC(=O)[C@H](CCC(=O)O)NC(=O)CNC(=O)[C@H]([C@@H](C)O)NC(=O)[C@H](CCC(=O)O)NC(=O)[C@@H]4C[C@H](F)CN4C(=O)[C@H](CC(=O)O)NC3=O)C(=O)N[C@@H](CC(C)C)C(=O)N3CCC[C@@H]3C(=O)N2C1 [Example 72, {[&^1Pro((4S)-NH-Stearyl)-Gln-Cys(&^2)-Asp-Pro((4S)-F)-Glu-Thr-Gly-Glu-Cys(&^3)-Leu-D-Pro&^1][&^2(1,2-phenylenediyl)dimethylene&^2]}] gave an IC50 of 1 to 100 nM.

same assay, conditions: HTRF (TR-FRET); displacement of ETGE-biotin from Keap1-MBP; values banded into grades; read-out: Binding (IC50) ETGE-Keap1

First: CCCCCCCCCCCCCCCCCC(=O)N[C@H]1C[C@H]2C(=O)N[C@@H](CCC(N)=O)C(=O)N[C@H]3CSCc4ccccc4CSC[C@H](NC(=O)[C@H](CCC(=O)O)NC(=O)CNC(=O)[C@H]([C@@H](C)O)NC(=O)[C@H](CCC(=O)O)NC(=O)[C@@H]4CSCN4C(=O)[C@H](CC(=O)O)NC3=O)C(=O)N[C@@H](CC(C)C)C(=O)N3CCC[C@@H]3C(=O)N2C1 [Example 78, {[&^1Pro((4S)-NH-Stearyl)-Gln-Cys(&^2)-Asp-Thz-Glu-Thr-Gly-Glu-Cys(&^3)-Leu-D-Pro&^1][&^2(1,2-phenylenediyl)dimethylene&^3]}]
Second: CCCCCCCCCCCCCCCCCC(=O)NCCC(=O)N[C@@H](CCCCN)C(=O)N[C@@H](CCCCN)C(=O)N[C@H]1CSCc2ccccc2CSC[C@@H](C(=O)N[C@@H](CCCCN)C(=O)N[C@@H](CCCCN)C(N)=O)NC(=O)[C@H](CCC(=O)O)NC(=O)CNC(=O)[C@H]([C@@H](C)O)NC(=O)[C@H](CCC(=O)O)NC(=O)[C@@H]2CCCN2C(=O)[C@H](CC(=O)O)NC1=O [Example 53, {[Stearyl-βAla-Lys-Lys-Cys(&^1)-Asp-Pro-Glu-Thr-Gly-Glu-Cys(&^2)-Lys-Lys-NH2][&^1(1,2-phenylenediyl)dimethylene&^2]}] ({Stearoyl-βAla}-KKCDPETGECKK-NH2; linker 3-10 via oXylylene)
The IC50 of the first is lower: under 1 nM for the first, 1 to 100 nM for the second. The first is the more potent here.

In the case of CC(=O)N[C@H]1CSCc2ccccc2CSC[C@@H](C(N)=O)NC(=O)[C@H](CCC(=O)O)NC(=O)CNC(=O)[C@H]([C@@H](C)O)NC(=O)[C@H](CCC(=O)O)NC(=O)[C@H](C)NC(=O)[C@H](CC(=O)O)NC1=O [Example 20, {[Acetyl-Cys(&^1)-Asp-Ala-Glu-Thr-Gly-Glu-Cys(&^2)-NH2][&^1(1,2-phenylenediyl)dimethylene&^2]}], the IC50 is reported as 1 to 100 nM.
